In BindingDB's records for doi:10.1002/cbic.200390029 (University of Queensland Brisbane, 2003):

Target: T1, Phospholipase A2, membrane associated (Homo sapiens, UniProt P14555)
T1 sequence (P14555 whole entry): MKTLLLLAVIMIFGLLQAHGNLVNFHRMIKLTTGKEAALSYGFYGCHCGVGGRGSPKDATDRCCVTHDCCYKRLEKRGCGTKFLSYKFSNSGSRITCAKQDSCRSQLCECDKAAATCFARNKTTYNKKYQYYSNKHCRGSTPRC
Assay: In Vitro Colorimetric Enzyme Assay

| IC50 [nM] | SMILES |
| --- | --- |
| 662 | O=C(O)CC[C@@H](Cc1ccc(OCc2ccccc2)cc1)NC(=O)CCCCCc1ccccc1 [hnpsPLA2-IIa Inhibitor, 2a] |
| 2480 | O=C(O)CC[C@@H](Cc1ccc(OCc2ccccc2)cc1)NC(=O)CCCCCCCc1ccccc1 [hnpsPLA2-IIa Inhibitor, 2c] |
| 1820 | COc1ccccc1CCCCCCC(=O)N[C@@H](CCC(=O)O)Cc1ccc(OCc2ccccc2)cc1 [hnpsPLA2-IIa Inhibitor, 2d] |
| 4050 | CC(=O)Nc1ccccc1CCCCCCC(=O)N[C@@H](CCC(=O)O)Cc1ccc(OCc2ccccc2)cc1 [hnpsPLA2-IIa Inhibitor, 2e] |
| 761 | O=C(O)CC[C@@H](Cc1ccc(OCc2ccccc2)cc1)NC(=O)CCCCCCc1cccnc1 [hnpsPLA2-IIa Inhibitor, 2f] |
| 536 | O=C(O)CC[C@@H](Cc1ccc(OCc2ccccc2)cc1)NC(=O)CCCCCCc1cccc([N+](=O)[O-])c1 [hnpsPLA2-IIa Inhibitor, 2g] |
| 214 | O=C(O)CC[C@@H](Cc1ccc(Oc2ccccn2)cc1)NC(=O)CCCCCCc1ccccc1 [hnpsPLA2-IIa Inhibitor, 2h] |
| 247 | O=C(O)CC[C@@H](Cc1ccc(Oc2cccnc2)cc1)NC(=O)CCCCCCc1ccccc1 [hnpsPLA2-IIa Inhibitor, 2i] |
| 67 | O=C(O)CC[C@@H](Cc1ccc(OCC2CCCCC2)cc1)NC(=O)CCCCCCc1ccccc1 [hnpsPLA2-IIa Inhibitor, 2j] |
| 57 | O=C(O)CC[C@@H](Cc1ccc(OCC2CCCC2)cc1)NC(=O)CCCCCCc1ccccc1 [hnpsPLA2-IIa Inhibitor, 2k] |
| 19 | O=C(O)CC[C@@H](Cc1ccc(OCc2cccc3ccccc23)cc1)NC(=O)CCCCCCc1ccccc1 [hnpsPLA2-IIa Inhibitor, 2l] |
| 39 | O=C(O)CC[C@@H](Cc1ccc(OCc2ccc3ccccc3c2)cc1)NC(=O)CCCCCCc1ccccc1 [hnpsPLA2-IIa Inhibitor, 2m] |
| 116 | O=C(O)CC[C@@H](Cc1ccc(OC/C=C/c2ccccc2)cc1)NC(=O)CCCCCCc1ccccc1 [hnpsPLA2-IIa Inhibitor, 2n] |
| 170 | CC(C)COc1ccc(C[C@H](CCC(=O)O)NC(=O)CCCCCCc2ccccc2)cc1 [hnpsPLA2-IIa Inhibitor, 2o] |
| 86 | CCCCCCCOc1ccc(C[C@H](CCC(=O)O)NC(=O)CCCCCCc2ccccc2)cc1 [hnpsPLA2-IIa Inhibitor, 2p] |
| 2570 | O=C(O)CC[C@@H](Cc1ccc(O)cc1)NC(=O)CCCCCCc1ccccc1 [hnpsPLA2-IIa Inhibitor, 2q] |
